These results are taken from ChEMBL document CHEMBL2176918, “Design and optimization of pyrazinecarboxamide-based inhibitors of diacylglycerol acyltransferase 1 (DGAT1) leading to a clinical candidate dimethylpyrazinecarboxamide phenylcyclohexylacetic acid (AZD7687)” (J Med Chem, 2012).

Molecules are shown by their SMILES. Converted amounts (≈) assume the structure as drawn.

The nature of series [1]: Lipophilicity, log D of the compound at pH 7.4 by chromatographic method. The following applies: buffer.
Series [2] addresses T1, Diacylglycerol O-acyltransferase 1 (Homo sapiens, UniProt O75907).
T1 sequence (O75907 whole entry): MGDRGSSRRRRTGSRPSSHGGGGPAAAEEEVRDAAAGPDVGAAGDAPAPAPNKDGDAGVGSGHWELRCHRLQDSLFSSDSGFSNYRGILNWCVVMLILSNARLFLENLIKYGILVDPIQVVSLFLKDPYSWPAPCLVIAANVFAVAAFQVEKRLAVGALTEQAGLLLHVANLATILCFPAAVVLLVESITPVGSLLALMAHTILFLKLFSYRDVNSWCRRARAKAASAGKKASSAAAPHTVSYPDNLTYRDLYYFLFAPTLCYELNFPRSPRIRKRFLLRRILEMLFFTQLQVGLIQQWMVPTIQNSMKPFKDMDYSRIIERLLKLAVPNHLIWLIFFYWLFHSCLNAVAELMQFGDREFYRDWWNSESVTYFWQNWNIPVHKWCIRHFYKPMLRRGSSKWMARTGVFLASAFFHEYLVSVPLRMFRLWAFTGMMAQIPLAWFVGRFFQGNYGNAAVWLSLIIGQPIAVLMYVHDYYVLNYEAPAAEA
Conditions: sf9.
Description: (§1) Inhibition of human recombinant DGAT1 expressed in Sf9 cells by liquid scintillography

A short description of series [3]: Solubility in 0.1 M phosphate buffer at pH 7.4 at 25 degC incubated for 24 hrs.
A short description of series [4]: Intrinsic clearance in rat hepatocytes assessed as parent compound disappearance at 1 uM per 10^6 cells. The following applies: read-out: CLH. The series is classed as ADME, cell-based, Hepatocyte.
For series [5], the target named is T1, Diacylglycerol O-acyltransferase 1.
Description: as §1
Series [6] can be described thus: Apparent permeability from apical to basolateral side in human Caco2 cells at pH 7.4. Type of series: ADME, cell-based. The following applies: Caco-2, pH 7.4. A general note: Caco-2 cells form a polarised layer with tight junctions and transporters.
Series [7] is described as follows: Apparent permeability from apical to basolateral side in MDCK cells at pH 7.4. The following applies: dog.
The nature of series [8]: Fraction unbound in human plasma at 37 degC by LC-UV/MS method based equilibrium dialysis method. Background: In equilibrium dialysis free small molecules cross a membrane that holds back macromolecules.
A short description of series [9]: Half life in Han-Wistar rat at 2.54 to 5.4 uM/kg, po. Type of series: ADME, organism-based. Conditions: in vivo.

A word on the chromatographic logD: it is lipophilicity estimated from chromatographic retention. Low readings indicate a more hydrophilic compound, high ones a more lipophilic compound. For `Cc1nc(C)c(-c2ccc(C34CCC(CC(=O)O)(CC3)CC4)cc2)nc1C(N)=O`, in [1], the chromatographic logD was determined as 1.3.
The IC50 is the midpoint of a concentration-inhibition curve. The low end stands for greater potency in that assay, the high end for weaker potency in that assay. With `Cc1ncc(C(=O)N(C)C)nc1-c1ccc([C@H]2CC[C@H](CC(=O)O)CC2)cc1`, the IC50 entry in series [2] was “Not Active”. The compound also had a chromatographic logD in series [1] of 0.7.
One may read the solubility as the concentration that dissolves in the medium under given conditions. Read a high solubility as much dissolved substance. `Cc1ncc(C(N)=O)nc1-c1ccc([C@H]2CC[C@H](C(=O)O)CC2)cc1` showed a chromatographic logD in series [1] of 0.22. The amount in solution in [3] (solubility at 24 h) came to 1200 µM (≈ 407 µg/mL). In [4], the hepatocyte CLint at 1 µM was 72 µL/min/1e6 cells.
The compound `Cc1nc(-c2ccccc2)c(C(N)=O)nc1-c1ccc([C@H]2CC[C@H](CC(=O)O)CC2)cc1` had a chromatographic logD in [1] of 2. Also, the IC50 in series [5] is over 10 µM.
As to `Cc1nc(C)c(-c2ccc([C@H]3CC[C@@H](CC(=O)O)CC3)c(Cl)c2)nc1C(N)=O`, the chromatographic logD in [1] is 1.5.
Regarding `Cc1ncc(C(=O)N2CCOCC2)nc1-c1ccc([C@H]2CC[C@H](CC(=O)O)CC2)cc1`, the IC50 result in series [2] was “Not Active”. Besides, the chromatographic logD in series [1] amounted to 0.7.
Turning to `Cc1ccc(C(N)=O)nc1-c1ccc([C@H]2CC[C@H](CC(=O)O)CC2)cc1`, in series [1], the chromatographic logD was found to be 1.3.
On to `Cc1ncc(C(=O)NCc2ccccc2)nc1-c1ccc([C@H]2CC[C@H](CC(=O)O)CC2)cc1`, for which the IC50 result in [2] is listed as “Not Active”. This compound returned a chromatographic logD in series [1] of 2.7.
`Cc1nc(C)c(-c2ccc3c(c2)CC[C@]32CC[C@@H](Cc3nnn[nH]3)CC2)nc1C(N)=O` yielded a chromatographic logD in series [1] of 2.
`Cc1nc(C)c(-c2ccc([C@H]3CC[C@@H](CC(=O)O)CC3)c(F)c2)nc1C(N)=O` showed a chromatographic logD in [1] of 1.2.
In series [1], `Cc1nc(C)c(-c2ccc3c(c2)CC[C@]32CC[C@@H](c3nnn[nH]3)CC2)nc1C(N)=O` gave a chromatographic logD of 1.4.
In the case of `Cc1ncc(C(=O)O)nc1-c1ccc([C@H]2CC[C@H](CC(=O)O)CC2)cc1`, in series [2], the IC50 result was “Not Active”. The chromatographic logD in series [1] was under 0.
For orientation: Papp A→B means the apparent permeability from the apical to the basolateral side of a cell layer. In the case of `Cc1nc(C)c(-c2ccc([C@H]3CC[C@H](CCO)CC3)cc2)nc1C(N)=O`, the chromatographic logD in series [1] amounted to 3.1. The same compound showed a solubility at 24 h in series [3] of 4 µM (≈ 1.41 µg/mL). Further, the Papp A→B in [6] was 58 ×10⁻⁶ cm/s. Also, in series [5], half-maximal inhibition (IC50) was put at 0.69 µM.
With `N=C(N)c1cncc(-c2ccc([C@H]3CC[C@H](CC(=O)O)CC3)cc2)n1`, in series [1], the chromatographic logD is under 0. Besides, the IC50 in series [5] is over 33 µM.
`Cc1nc(C)c(-c2ccc([C@H]3CC[C@H](CC(=O)O)CC3)c(F)c2)nc1C(N)=O` showed a chromatographic logD in series [1] of 1.3.
In the case of `NC(=O)C[C@H]1CC[C@H](c2ccc(-c3cncc(C(N)=O)n3)cc2)CC1`, in series [1], the chromatographic logD stood at 0.9. In addition, the solubility at 24 h in series [3] is under 1 µM. Moreover, the Papp A→B in series [6] was 13 ×10⁻⁶ cm/s. In series [5], this compound had an IC50 of 1.9 µM.
As for `Cc1nc(C)c(-c2ccc([C@H]3CC[C@H](CC(=O)NS(C)(=O)=O)CC3)cc2)nc1C(N)=O`, the chromatographic logD in series [1] amounted to 0.9. Further, the solubility at 24 h in series [3] came to 100 µM (≈ 44.5 µg/mL). Besides, the Papp A→B in [6] was 2 ×10⁻⁶ cm/s. For the same compound, the hepatocyte CLint at 1 µM in [4] was 17 µL/min/1e6 cells. The same compound had a half-inhibitory concentration (IC50) in series [5] of 0.1 µM.
Compound `Cc1nc(C)c(-c2ccc([C@H]3CC[C@H](CC(=O)O)CC3)c(Cl)c2)nc1C(N)=O` showed a chromatographic logD in [1] of 1.8.
For `Cc1nc(C)c(-c2ccc([C@H]3CC[C@H](CC(=O)O)CC3)cc2)nc1C(=O)O`, in series [2], the IC50 entry was “Not Active”.
By fraction unbound is commonly meant the share of the substance not bound to proteins or other matrix. Low values mean little free substance, high ones much free substance. In series [1], `Cc1nc(C)c(-c2ccc([C@H]3CC[C@H](CC(N)=O)CC3)cc2)nc1C(N)=O` came in with a chromatographic logD of 1.7. For the same compound, the hepatocyte CLint at 1 µM in series [4] came out at 77 µL/min/1e6 cells. The Papp A→B in [7] was 18 ×10⁻⁶ cm/s. The fraction unbound in series [8] stood at 0.13.
For the compound `Cc1ncc(C(N)=S)nc1-c1ccc([C@H]2CC[C@H](CC(=O)O)CC2)cc1`, the chromatographic logD in [1] amounted to 1.8.
For `CCc1nc(C)c(C(N)=O)nc1-c1ccc([C@H]2CC[C@H](CC(=O)O)CC2)cc1`, in series [1], the chromatographic logD was determined as 1.7. The IC50 in [5] is over 9.1 µM.
In the case of `CCc1nc(C)c(-c2ccc([C@H]3CC[C@H](CC(=O)O)CC3)cc2)nc1C(N)=O`, the chromatographic logD in series [1] was determined as 1.5.
On to `N#C/N=C(\N)c1cncc(-c2ccc([C@H]3CC[C@H](CC(=O)O)CC3)cc2)n1`, for which, in series [2], the IC50 entry is given as “Not Active”. The compound further registered a chromatographic logD in series [1] of 1.2.
As to `NC(=O)c1nc(-c2ccc([C@H]3CC[C@H](CC(=O)O)CC3)cc2)cnc1N`, the chromatographic logD in series [1] came to 0.5. Also, the IC50 in series [5] is over 10 µM.
Regarding `CNC(=O)c1cnc(C)c(-c2ccc([C@H]3CC[C@H](CC(=O)O)CC3)cc2)n1`, the concentration for half-maximal inhibition (IC50) entry in series [2] is recorded as “Not Active”. The compound further returned a chromatographic logD in series [1] of 0.9.
For `NCc1cncc(-c2ccc([C@H]3CC[C@H](CC(=O)O)CC3)cc2)n1`, the IC50 entry in series [2] was “Not Active”. In series [1], this compound registered a chromatographic logD of under 0.
A word on the half-life: it is the time needed for the level to fall by half in the phase considered. Lower therefore signals rapid decline. With `Cc1nc(C)c(-c2ccc([C@H]3CC[C@H](Cc4nnn[nH]4)CC3)cc2)nc1C(N)=O`, the hepatocyte CLint at 1 µM in series [4] was under 2 µL/min/1e6 cells. The fraction unbound in [8] turned out to be 0.009. Further, the half-life in series [9] is 9 h.
The compound `Cc1nc(C(F)F)c(C(N)=O)nc1-c1ccc([C@H]2CC[C@H](CC(=O)O)CC2)cc1` gave a chromatographic logD in series [1] of 1.4.
Compound `Cc1nc(C)c(-c2ccc([C@H]3CC[C@@H](CC(=O)O)CC3)cc2)nc1C(N)=O` displayed an IC50 in series [5] of 0.43 µM.
In series [1], `NC(=O)c1cncc(-c2ccc([C@H]3CC[C@H](CC(=O)O)CC3)cc2)c1` displayed a chromatographic logD of 0.
As to `NC(=O)c1cncc(-c2ccc([C@H]3CC[C@H](CCO)CC3)cc2)n1`, the chromatographic logD in [1] worked out at 2.3. In addition, the solubility at 24 h in series [3] turned out to be 3 µM (≈ 0.976 µg/mL). Also, in [6], the apical-to-basolateral permeability (Papp A→B) amounted to 38 ×10⁻⁶ cm/s. In addition, the hepatocyte CLint at 1 µM in series [4] is 36 µL/min/1e6 cells. This compound returned a fraction unbound in series [8] of 0.028. The IC50 in series [5] was found to be 1.2 µM.
In [1], `NC(=O)c1cccc(-c2ccc([C@H]3CC[C@H](CC(=O)O)CC3)cc2)n1` returned a chromatographic logD of 0.8.
Consider `Cc1nc(-c2ccccc2)c(-c2ccc([C@H]3CC[C@H](CC(=O)O)CC3)cc2)nc1C(N)=O`, for which the chromatographic logD in series [1] is 2.5. Moreover, the IC50 in series [5] was over 10 µM.
Turning to `CC(C)(NC(=O)C[C@H]1CC[C@H](c2ccc(-c3cncc(C(N)=O)n3)cc2)CC1)C(=O)O`, in series [1], the chromatographic logD was under 0.1. In [3], this compound showed a solubility at 24 h of over 100 µM. In addition, the hepatocyte CLint at 1 µM in [4] was under 2 µL/min/1e6 cells. The compound also came in with an IC50 in series [5] of 1.1 µM.
For the compound `Cc1nc(C(C)C)c(C(N)=O)nc1-c1ccc([C@H]2CC[C@H](CC(=O)O)CC2)cc1`, the chromatographic logD in [1] worked out at 2.6. Moreover, the IC50 in series [5] was over 10 µM.
Turning to `Cc1nc(C(C)C)c(-c2ccc([C@H]3CC[C@H](CC(=O)O)CC3)cc2)nc1C(N)=O`, the chromatographic logD in series [1] is 2.6. Also, the IC50 in series [5] was over 10 µM.
